Values after ≈ are worked out from the molar mass of the structure shown.
Assays:
Format in all cases: cell-based
[1] = system: MYCOBACTERIUM SMEGMATIS ATCC 114; assay: In vitro antibacterial activity, MIC, BHI agar dilution; conditions: M. smegmatis ATCC 114, unit assumed
ESCHERICHIA COLI SS = assay: as above; conditions: E. coli SS, unit assumed
PSEUDOMONAS CEPACIA 296I = assay: as above; conditions: P. cepacia 296I, unit assumed
[2] = system: STAPHYLOCOCCUS AUREUS NCTC10649M; assay: as above; conditions: S. aureus NCTC10649M, unit assumed
[3] = system: KLEBSIELLA PNEUMONIAE ATCC 8045; assay: as above; conditions: K. pneumoniae ATCC 8045, unit assumed
[4] = system: PSEUDOMONAS AERUGINOSA DPHD-2862; assay: as above; conditions: P. aeruginosa DPHD-2862, unit assumed
[5] = system: STAPHYLOCOCCUS AUREUS A-5278; assay: as above; conditions: S. aureus A-5278, unit assumed
[6] = system: PSEUDOMONAS AERUGINOSA K799/61; assay: as above; conditions: P. aeruginosa K799/61, unit assumed
[7] = system: STAPHYLOCOCCUS AUREUS ATCC 6538P; assay: as above; conditions: S. aureus ATCC 6538P, 35-37° C., 20 to 24 hours, unit assumed
[8] = system: STREPTOCOCCUS BOVIS A-5169; assay: as above; conditions: S. bovis A-5169, unit assumed
[9] = system: STREPTOCOCCUS PYOGENES PIU 2548; assay: as above; conditions: S. pyogenes PIU 2548, unit assumed
CANDIDA ALBICANS CCH 442 = assay: as above; conditions: C. albicans CCH 442, unit assumed
[10] = system: PSEUDOMONAS AERUGINOSA 5007; assay: as above; conditions: P. aeruginosa 5007, unit assumed
ESCHERICHIA COLI JUHL = conditions: E. coli JUHL; BHI agar; unit assumed
[11] = system: PROVIDENCIA STUARTII CMX 640; conditions: P. stuartii CMX 640; BHI agar; unit assumed
ESCHERICHIA COLI KNK 437 = conditions: E. coli KNK 437; BHI agar; unit assumed
H. Influenza Dill AMP R = assay: In vitro antibacterial activity against H. Influenza Dill AMP R, MIC; conditions: separate assay, unit assumed
Experimental: Representative compounds of the present invention were assayed in vitro for antibacterial activity as follows: Twelve petri dishes containing successive aqueous dilutions of the test compound mixed with 10 mL of sterilized Brain Heart Infusion (BHI) agar (Difco 0418-01-5) were prepared. Each plate was inoculated with 1:100 (or 1:10 for slow-growing strains, such as Micrococcus and Streptococcus) dilutions of up to 32 different microorganisms, using a Steers replicator block. The inoculated plates were incubated at 35-37° C. for 20 to 24 hours. In addition, a control plate, using BHI agar containing no test compound, was prepared and incubated at the beginning and end of each test.
After incubation, each plate was visually inspected. The minimum inhibitory concentration (MIC) was defmed as the lowest concentration of drug yielding no growth, a slight haze, or sparsely isolated colonies on the inoculum spot as compared to the growth control.
In a separate assay representative compounds of the invention were assayed in vitro for antibacterial activity against the H. Influenza Dill AMP R strain, according to the protocol described above.

[12] = system: STREPTOCOCCUS PYOGENES 930; assay: In vitro antibacterial activity, MIC, BHI agar dilution; conditions: S. pyogenes 930, unit assumed
STR[…] 508 = assay: as above; conditions: S. agalactiae CMX 508, unit assumed
How it was run: (§1)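 MIC was read visually as the lowest drug level with no growth, a slight haze or sparsely isolated colonies relative to a compound-free growth control. Organisms were spotted at 1:100 dilution (1:10 for slow-growing strains) onto Brain Heart Infusion agar containing serial compound dilutions and incubated 20 to 24 hours at 35-37° C.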

EN[…] ATCC 8043 = assay: as above; conditions: E. faecium ATCC 8043, unit assumed
How it was run: as §1

M[…] ATCC 9341 = assay: as above; conditions: M. luteus ATCC 9341, unit assumed
How it was run: as §1

M[…] ATCC 4698 = assay: as above; conditions: M. luteus ATCC 4698, unit assumed
How it was run: as §1

[13] = system: STAPHYLOCOCCUS AUREUS 1775; assay: as above; conditions: S. aureus 1775, unit assumed
[14] = system: PSEUDOMONAS AERUGINOSA BMH10; assay: as above; conditions: P. aeruginosa BMH10, unit assumed
[15] = system: ENTEROBACTER AEROGENES ATCC 13048; assay: as above; conditions: E. aerogenes ATCC 13048, unit assumed
[16] = system: STAPHYLOCOCCUS EPIDERMIDIS 3519; conditions: S. epidermidis 3519; BHI agar; unit assumed
ESCHERICHIA COLI H560 = assay: In vitro antibacterial activity, MIC, BHI agar dilution; conditions: E. coli H560, unit assumed
[17] = system: STAPHYLOCOCCUS AUREUS CMX 642A; assay: as above; conditions: S. aureus CMX 642A, unit assumed
[18] = system: PSEUDOMONAS AERUGINOSA K799/WT; assay: as above; conditions: P. aeruginosa K799/WT, unit assumed
ESCHERICHIA COLI DC-2 = assay: as above; conditions: E. coli DC-2, unit assumed
[19] = system: STREPTOCOCCUS PYOGENES EES61; assay: as above; conditions: S. pyogenes EES61, unit assumed
[20] = system: STAPHYLOCOCCUS AUREUS CMX 553; assay: as above; conditions: S. aureus CMX 553, unit assumed
[21] = system: PSEUDOMONAS AERUGINOSA DPHD-5263; assay: as above; conditions: P. aeruginosa DPHD-5263, unit assumed
[22] = system: STAPHYLOCOCCUS AUREUS A5177; assay: as above; conditions: S. aureus A5177, unit assumed

Row | Compound | MIC [1] [µg/mL] | MIC (ESCHERICHIA COLI SS) [µg/mL] | MIC (PSEUDOMONAS CEPACIA 296I) [µg/mL] | MIC [2] [µg/mL] | MIC [4] [µg/mL] | MIC [5] [µg/mL] | MIC [6] [µg/mL] | MIC [7] [µg/mL] | MIC [8] [µg/mL] | MIC [9] [µg/mL] | MIC (CANDIDA ALBICANS CCH 442) [µg/mL] | MIC [10] [µg/mL] | MIC (ESCHERICHIA COLI JUHL) [µg/mL] | MIC [11] [µg/mL] | MIC (ESCHERICHIA COLI KNK 437) [µg/mL] | MIC (H. Influenza Dill AMP R) [µg/mL] | MIC [12] [µg/mL] | MIC (STR[…] 508) [µg/mL] | MIC (EN[…] ATCC 8043) [µg/mL] | MIC (M[…] ATCC 9341) [µg/mL] | further results
1 | CCC1OC(=O)C(C)C(=O)C(C)C(OC2OC(C)CC(N(C)C)C2O)C(C)(OC)CC(C)C2=NC(c3ccccc3)C(c3ccccc3)N3C(=O)OC1(C)C3C2C (stereo not drawn) [Example 7] | 1.56 (≈ 1.97 µM) | 3.1 (≈ 3.92 µM) | > 100 | 3.1 (≈ 3.92 µM) | > 100 | 100 (≈ 127 µM) | 6.2 (≈ 7.85 µM) | 3.1 (≈ 3.92 µM) | 0.2 (≈ 0.253 µM) | 1.56 (≈ 1.97 µM) | > 100 | > 100 | > 100 | > 100 | > 100 | 64 (≈ 81 µM) | 50 (≈ 63.3 µM) | 0.2 (≈ 0.253 µM) | 0.39 (≈ 0.494 µM) | 0.39 (≈ 0.494 µM) | MIC [3]: > 100 µg/mL; MIC (M[…] ATCC 4698): 1.56 µg/mL (≈ 1.97 µM); MIC [13]: 100 µg/mL (≈ 127 µM); MIC [14]: > 100 µg/mL; MIC [15]: > 100 µg/mL; MIC [16]: 1.56 µg/mL (≈ 1.97 µM); MIC (ESCHERICHIA COLI H560): > 100 µg/mL; MIC [17]: 3.1 µg/mL (≈ 3.92 µM); MIC [18]: > 100 µg/mL; MIC (ESCHERICHIA COLI DC-2): > 100 µg/mL; MIC [19]: 0.2 µg/mL (≈ 0.253 µM); MIC [20]: 3.1 µg/mL (≈ 3.92 µM); MIC [21]: > 100 µg/mL
2 | CC[C@H]1OC(=O)[C@H](C)C(=O)[C@H](C)[C@@H](O[C@@H]2O[C@H](C)C[C@H](N(C)C)[C@H]2O)[C@](C)(OC)C[C@@H](C)C2=NC[C@H](COCc3cccc(F)c3)N3C(=O)O[C@@]1(C)[C@H]3[C@H]2C [Example 72] | 0.39 (≈ 0.503 µM) | 0.39 (≈ 0.503 µM) | 50 (≈ 64.4 µM) | 0.1 (≈ 0.129 µM) | > 100 | > 100 | 0.39 (≈ 0.503 µM) | 0.1 (≈ 0.129 µM) | ≤ 0.005 | 0.39 (≈ 0.503 µM) | > 100 | 100 (≈ 129 µM) | 50 (≈ 64.4 µM) | > 100 | 50 (≈ 64.4 µM) | 2 (≈ 2.58 µM) | 50 (≈ 64.4 µM) | 0.01 (≈ 0.0129 µM) | 0.05 (≈ 0.0644 µM) | ≤ 0.005 | MIC [22]: 0.1 µg/mL (≈ 0.129 µM); MIC (M[…] ATCC 4698): 0.2 µg/mL (≈ 0.258 µM); MIC [13]: > 100 µg/mL; MIC [14]: 50 µg/mL (≈ 64.4 µM); MIC [15]: 50 µg/mL (≈ 64.4 µM); MIC [16]: 0.2 µg/mL (≈ 0.258 µM); MIC (ESCHERICHIA COLI H560): 12.5 µg/mL (≈ 16.1 µM); MIC [17]: 0.1 µg/mL (≈ 0.129 µM); MIC [18]: 50 µg/mL (≈ 64.4 µM); MIC (ESCHERICHIA COLI DC-2): 25 µg/mL (≈ 32.2 µM); MIC [19]: 0.01 µg/mL (≈ 0.0129 µM); MIC [20]: 0.1 µg/mL (≈ 0.129 µM); MIC [21]: > 100 µg/mL
